# From patent US8951964B2, “Phenanthridine macrocyclic hepatitis C serine protease inhibitors” (priority 2010, dated 2015)
# Tested on: genotype 1b replicon (1b-Con1, 1b-N)
# Test: 1b stable replicon (luciferase reporter)
# Format: cell-based, HCV
# Details: Hepatitis C virus, HuH-7 cells, 5% FBS
row,SMILES,EC50
1,Cc1cc(C(=O)N[C@H]2CCCCC/C=C\[C@@H]3C[C@@]3(C(=O)NS(=O)(=O)C3CC3)NC(=O)[C@@H]3C[C@@H](Oc4nc5cc(F)ccc5c5ccccc45)CN3C2=O)no1,0.1 to 0.5 nM
2,Cc1cc(C(=O)N[C@H]2CCCCC/C=C\[C@@H]3C[C@@]3(C(=O)NS(=O)(=O)C3(C)CC3)NC(=O)[C@@H]3C[C@@H](Oc4nc5cc(F)ccc5c5cc(F)ccc45)CN3C2=O)no1,0.1 to 0.5 nM
3,Cn1ccc(C(=O)N[C@H]2CCCCC/C=C\[C@@H]3C[C@@]3(C(=O)NS(=O)(=O)C3CC3)NC(=O)[C@@H]3C[C@@H](Oc4nc5ccccc5c5cccc(F)c45)CN3C2=O)n1,< 0.1 nM
4,Cc1cc(C(=O)N[C@H]2CCCCC/C=C\[C@@H]3C[C@@]3(C(=O)NS(=O)(=O)C3CC3)NC(=O)[C@@H]3C[C@@H](Oc4nc5cccc(F)c5c5ccccc45)CN3C2=O)no1,0.1 to 0.5 nM
5,Cn1ccc(C(=O)N[C@H]2CCCCC/C=C\[C@@H]3C[C@@]3(C(=O)NS(=O)(=O)C3CC3)NC(=O)[C@@H]3C[C@@H](Oc4nc5cc(F)ccc5c5cc(F)ccc45)CN3C2=O)n1,< 0.1 nM
6,COc1ccc2c(c1)c(O[C@@H]1C[C@H]3C(=O)N[C@]4(C(=O)NS(=O)(=O)C5CC5)C[C@H]4/C=C\CCCCC[C@H](NC(=O)c4cc(C)on4)C(=O)N3C1)nc1cc(F)ccc12,0.5 to 1 nM
7,CC1(S(=O)(=O)NC(=O)[C@@]23C[C@H]2/C=C\CCCCC[C@H](NC(=O)c2cscn2)C(=O)N2C[C@H](Oc4nc5ccccc5c5cc(F)ccc45)C[C@H]2C(=O)N3)CC1,0.1 to 0.5 nM
8,CC1(S(=O)(=O)NC(=O)[C@@]23C[C@H]2/C=C\CCCCC[C@H](NC(=O)c2ccon2)C(=O)N2C[C@H](Oc4nc5cc(F)ccc5c5ccccc45)C[C@H]2C(=O)N3)CC1,0.1 to 0.5 nM

# Tested on: genotype 3a NS3 gene in transient replicon
# Test: 3a transient replicon (luciferase reporter)
# Format: cell-based, HCV
# Details: Hepatitis C virus, Huh-7, read-out: 3a transient replicon (nM)
row,SMILES,EC50
1,Cc1cc(C(=O)N[C@H]2CCCCC/C=C\[C@@H]3C[C@@]3(C(=O)NS(=O)(=O)C3CC3)NC(=O)[C@@H]3C[C@@H](Oc4nc5cc(F)ccc5c5ccccc45)CN3C2=O)no1,> 1 nM
2,Cc1cc(C(=O)N[C@H]2CCCCC/C=C\[C@@H]3C[C@@]3(C(=O)NS(=O)(=O)C3(C)CC3)NC(=O)[C@@H]3C[C@@H](Oc4nc5cc(F)ccc5c5cc(F)ccc45)CN3C2=O)no1,> 1 nM
3,Cc1cc(C(=O)N[C@H]2CCCCC/C=C\[C@@H]3C[C@@]3(C(=O)NS(=O)(=O)C3CC3)NC(=O)[C@@H]3C[C@@H](Oc4nc5cccc(F)c5c5ccccc45)CN3C2=O)no1,> 1 nM
4,COc1ccc2c(c1)c(O[C@@H]1C[C@H]3C(=O)N[C@]4(C(=O)NS(=O)(=O)C5CC5)C[C@H]4/C=C\CCCCC[C@H](NC(=O)c4cc(C)on4)C(=O)N3C1)nc1cc(F)ccc12,> 1 nM
5,CC1(S(=O)(=O)NC(=O)[C@@]23C[C@H]2/C=C\CCCCC[C@H](NC(=O)c2cscn2)C(=O)N2C[C@H](Oc4nc5ccccc5c5cc(F)ccc45)C[C@H]2C(=O)N3)CC1,> 1 nM
6,CC1(S(=O)(=O)NC(=O)[C@@]23C[C@H]2/C=C\CCCCC[C@H](NC(=O)c2ccon2)C(=O)N2C[C@H](Oc4nc5cc(F)ccc5c5ccccc45)C[C@H]2C(=O)N3)CC1,0.5 to 1 nM

# Tested on: genotype 1b transient replicon
# Test: 1b transient replicon (luciferase reporter)
# Format: cell-based, HCV
# Details: Hepatitis C virus, HuH-7 cells, 5% FBS
row,SMILES,EC50
1,Cc1cc(C(=O)N[C@H]2CCCCC/C=C\[C@@H]3C[C@@]3(C(=O)NS(=O)(=O)C3(C)CC3)NC(=O)[C@@H]3C[C@@H](Oc4nc5cc(F)ccc5c5cc(F)ccc45)CN3C2=O)no1,0.1 to 0.5 nM
2,Cn1ccc(C(=O)N[C@H]2CCCCC/C=C\[C@@H]3C[C@@]3(C(=O)NS(=O)(=O)C3CC3)NC(=O)[C@@H]3C[C@@H](Oc4nc5ccccc5c5cccc(F)c45)CN3C2=O)n1,0.5 to 1 nM
3,Cc1cc(C(=O)N[C@H]2CCCCC/C=C\[C@@H]3C[C@@]3(C(=O)NS(=O)(=O)C3CC3)NC(=O)[C@@H]3C[C@@H](Oc4nc5cccc(F)c5c5ccccc45)CN3C2=O)no1,0.1 to 0.5 nM
4,Cn1ccc(C(=O)N[C@H]2CCCCC/C=C\[C@@H]3C[C@@]3(C(=O)NS(=O)(=O)C3CC3)NC(=O)[C@@H]3C[C@@H](Oc4nc5cc(F)ccc5c5cc(F)ccc45)CN3C2=O)n1,0.1 to 0.5 nM
5,CC1(S(=O)(=O)NC(=O)[C@@]23C[C@H]2/C=C\CCCCC[C@H](NC(=O)c2cscn2)C(=O)N2C[C@H](Oc4nc5ccccc5c5cc(F)ccc45)C[C@H]2C(=O)N3)CC1,0.1 to 0.5 nM
6,CC1(S(=O)(=O)NC(=O)[C@@]23C[C@H]2/C=C\CCCCC[C@H](NC(=O)c2ccon2)C(=O)N2C[C@H](Oc4nc5cc(F)ccc5c5ccccc45)C[C@H]2C(=O)N3)CC1,0.1 to 0.5 nM

# Tested on: genotype 1a transient replicon (1a-H77)
# Test: 1a transient replicon (luciferase reporter)
# Format: cell-based, HCV
# Details: Hepatitis C virus, HuH-7 cells, 5% FBS
row,SMILES,EC50
1,Cc1cc(C(=O)N[C@H]2CCCCC/C=C\[C@@H]3C[C@@]3(C(=O)NS(=O)(=O)C3(C)CC3)NC(=O)[C@@H]3C[C@@H](Oc4nc5cc(F)ccc5c5cc(F)ccc45)CN3C2=O)no1,< 0.1 nM
2,Cn1ccc(C(=O)N[C@H]2CCCCC/C=C\[C@@H]3C[C@@]3(C(=O)NS(=O)(=O)C3CC3)NC(=O)[C@@H]3C[C@@H](Oc4nc5ccccc5c5cccc(F)c45)CN3C2=O)n1,0.1 to 0.5 nM
3,Cc1cc(C(=O)N[C@H]2CCCCC/C=C\[C@@H]3C[C@@]3(C(=O)NS(=O)(=O)C3CC3)NC(=O)[C@@H]3C[C@@H](Oc4nc5cccc(F)c5c5ccccc45)CN3C2=O)no1,< 0.1 nM
4,Cn1ccc(C(=O)N[C@H]2CCCCC/C=C\[C@@H]3C[C@@]3(C(=O)NS(=O)(=O)C3CC3)NC(=O)[C@@H]3C[C@@H](Oc4nc5cc(F)ccc5c5cc(F)ccc45)CN3C2=O)n1,0.1 to 0.5 nM
5,CC1(S(=O)(=O)NC(=O)[C@@]23C[C@H]2/C=C\CCCCC[C@H](NC(=O)c2cscn2)C(=O)N2C[C@H](Oc4nc5ccccc5c5cc(F)ccc45)C[C@H]2C(=O)N3)CC1,0.1 to 0.5 nM
6,CC1(S(=O)(=O)NC(=O)[C@@]23C[C@H]2/C=C\CCCCC[C@H](NC(=O)c2ccon2)C(=O)N2C[C@H](Oc4nc5cc(F)ccc5c5ccccc45)C[C@H]2C(=O)N3)CC1,< 0.1 nM

# Tested on: genotype 1a replicon (1a-H77)
# Test: 1a stable replicon (luciferase reporter)
# Format: cell-based, HCV
# Details: Hepatitis C virus, Huh-7, luciferase reporter, HuH-7 cells, 5% FBS
row,SMILES,EC50
1,Cc1cc(C(=O)N[C@H]2CCCCC/C=C\[C@@H]3C[C@@]3(C(=O)NS(=O)(=O)C3CC3)NC(=O)[C@@H]3C[C@@H](Oc4nc5cc(F)ccc5c5ccccc45)CN3C2=O)no1,0.1 to 0.5 nM
2,Cc1cc(C(=O)N[C@H]2CCCCC/C=C\[C@@H]3C[C@@]3(C(=O)NS(=O)(=O)C3(C)CC3)NC(=O)[C@@H]3C[C@@H](Oc4nc5cc(F)ccc5c5cc(F)ccc45)CN3C2=O)no1,0.1 to 0.5 nM
3,Cn1ccc(C(=O)N[C@H]2CCCCC/C=C\[C@@H]3C[C@@]3(C(=O)NS(=O)(=O)C3CC3)NC(=O)[C@@H]3C[C@@H](Oc4nc5ccccc5c5cccc(F)c45)CN3C2=O)n1,0.5 to 1 nM
4,Cc1cc(C(=O)N[C@H]2CCCCC/C=C\[C@@H]3C[C@@]3(C(=O)NS(=O)(=O)C3CC3)NC(=O)[C@@H]3C[C@@H](Oc4nc5cccc(F)c5c5ccccc45)CN3C2=O)no1,0.5 to 1 nM
5,Cn1ccc(C(=O)N[C@H]2CCCCC/C=C\[C@@H]3C[C@@]3(C(=O)NS(=O)(=O)C3CC3)NC(=O)[C@@H]3C[C@@H](Oc4nc5cc(F)ccc5c5cc(F)ccc45)CN3C2=O)n1,0.5 to 1 nM
6,COc1ccc2c(c1)c(O[C@@H]1C[C@H]3C(=O)N[C@]4(C(=O)NS(=O)(=O)C5CC5)C[C@H]4/C=C\CCCCC[C@H](NC(=O)c4cc(C)on4)C(=O)N3C1)nc1cc(F)ccc12,0.5 to 1 nM
7,CC1(S(=O)(=O)NC(=O)[C@@]23C[C@H]2/C=C\CCCCC[C@H](NC(=O)c2cscn2)C(=O)N2C[C@H](Oc4nc5ccccc5c5cc(F)ccc45)C[C@H]2C(=O)N3)CC1,0.5 to 1 nM
8,CC1(S(=O)(=O)NC(=O)[C@@]23C[C@H]2/C=C\CCCCC[C@H](NC(=O)c2ccon2)C(=O)N2C[C@H](Oc4nc5cc(F)ccc5c5ccccc45)C[C@H]2C(=O)N3)CC1,0.1 to 0.5 nM
